For 1 substance, GABARAPL2 accumulation results are on record in patent publication US20260272952A1, “CANNABINOIDS FOR TREATING NEUROINFLAMMATION” (Lundquist Institute for Biomedical Innovation at …, priority 2022, published 2026).

This experiment deals with MPS IIIA neurons. In words: GABARAPL2 western blot in iPSC-derived cortical neurons treated with CBD. The experiment is classed as cell-based, human. The settings on record: CBD 1 μM and 5 μM, cortical neurons from MPS IIIA patients' iPSCs, with or without Bafilomycin A1 200 nM. The procedure: HCNT: human health controls; MPS IIIA: MPS IIIA forebrain neurons.
Cortical neurons differentiated from healthy control and MPS IIIA patients' iPSCs. […] GABARAPL2, a protein which involves in autophagy, was measured in a western blot assay (see FIG. 3).
On the technique in general: A western blot detects proteins with antibodies after separation by electrophoresis.

With Cannabidiol [CBD], the GABARAPL2 accumulation entry is reported as “decreases”.
